The record followed here is patent publication US10918713B2, “Epitopes from allergen proteins and methods and uses for immune response modulation” (LA JOLLA INSTITUTE FOR ALLERGY AND IMMUNOLOGY, priority 2012, dated 2021).

Several values for one entry are separate records, joined by “and”; a condition that tells them apart may be missing. Equal entries are not always repeated.

Assay [1] relates to PBMC from allergic donors. The experiment in a line: IL-5 ELISPOT with extract-stimulated short-term lines. Particulars: positive donor/peptide response; each table line is one donor. The class given is cell-based, human. The method, then:
(§1) Spots were counted by computer-assisted image analysis (Zeiss, KS-ELISPOT reader, Munich, Germany).
(§2) Each assay was performed in triplicate. The level of statistical significance was determined with a Student's t-test using the mean of triplicate values of the response against relevant pools or individual peptides versus the response against the DMSO control.

The test system of assay [2] is PBMC from allergic donors. As to the kind of experiment: Dual ELISPOT, total IL-5 and IFN-γ response (SFC). Particulars: sum of IFNg and IL-5; each table line is one donor. It counts as cell-based, human. The method, then: as §1, §2

As for 3324.1591 (FIFGEARSLYLNTEL), the “Response (SFC/10^6) IL-5” value in assay [1] was 500 SFC/10^6 and 133 SFC/10^6. For the same substance, the “Response (SFC/10^6) Total” value in assay [2] was 500 SFC/10^6 and 133 SFC/10^6.
For the substance 3324.1593 (FEAARVVFSYCNLSD), the “Response (SFC/10^6) IL-5” value in assay [1] stood at 363 SFC/10^6. In addition, the “Response (SFC/10^6) Total” value in assay [2] was determined as 363 SFC/10^6.
Turning to 3324.1594 (SDYFVGANLIVSNSA), the “Response (SFC/10^6) IL-5” value in assay [1] is listed as 920 SFC/10^6. Besides, in assay [2], the “Response (SFC/10^6) Total” value is 920 SFC/10^6.
In the case of 3324.1596 (AAEFGTVDSATLIVE), in assay [1], the “Response (SFC/10^6) IL-5” value is 3003 SFC/10^6. The “Response (SFC/10^6) Total” value in assay [2] was found to be 3003 SFC/10^6.
For 3324.1599 (EKVKIERLHPYITLY), the “Response (SFC/10^6) IL-5” value in assay [1] amounted to 260 SFC/10^6. The “Response (SFC/10^6) Total” value in assay [2] worked out at 260 SFC/10^6.
With 3324.1600 (EYIEAAKWLLPPPKV), the “Response (SFC/10^6) IL-5” value in assay [1] stood at 980 SFC/10^6. Further, the “Response (SFC/10^6) Total” value in assay [2] is recorded as 980 SFC/10^6.
Regarding 3324.1601 (GANLIVSNSAPRPDG), in assay [1], the “Response (SFC/10^6) IL-5” value worked out at 147 SFC/10^6. Moreover, in assay [2], the “Response (SFC/10^6) Total” value worked out at 147 SFC/10^6.
Consider 3324.1602 (RTIFFDAYLGTSYVI), for which the “Response (SFC/10^6) IL-5” value in assay [1] stood at 433 SFC/10^6. The “Response (SFC/10^6) Total” value in assay [2] was found to be 433 SFC/10^6.
3324.1603 (DAYLGTSYVIVIKEP): in assay [1], the “Response (SFC/10^6) IL-5” value was found to be 290 SFC/10^6. Moreover, the “Response (SFC/10^6) Total” value in assay [2] is reported as 290 SFC/10^6.
For the substance 3324.1606 (KIAAEIAIALLFLRD), in assay [1], the “Response (SFC/10^6) IL-5” value is 90 SFC/10^6. The “Response (SFC/10^6) Total” value in assay [2] is recorded as 90 SFC/10^6.
As for 3324.1608 (IAIALLFLRDAKPEP), the “Response (SFC/10^6) IL-5” value in assay [1] came to 97 SFC/10^6. Moreover, in assay [2], the “Response (SFC/10^6) Total” value is 97 SFC/10^6.
On to 3324.1609 (SFGIILLQLLTARPP), for which, in assay [1], the “Response (SFC/10^6) IL-5” value turned out to be 103 SFC/10^6. Moreover, the “Response (SFC/10^6) Total” value in assay [2] is 103 SFC/10^6.
In the case of 3324.1630 (TKLDDEIKSWLAFAA), the “Response (SFC/10^6) IL-5” value in assay [1] stood at 87 SFC/10^6. For the same substance, the “Response (SFC/10^6) Total” value in assay [2] came to 87 SFC/10^6.
On to 3324.1632 (VIAELKAAGASTIQF), for which, in assay [1], the “Response (SFC/10^6) IL-5” value is on record as 313 SFC/10^6. Further, the “Response (SFC/10^6) Total” value in assay [2] was 313 SFC/10^6.
